Structures can show the parent of a compound that is named as a salt.
What was measured:
[1] = test system: MAPK p38 phosphorylation; test: MAPK p38 Activation Assay (western blot), Panc-1; assay type: cell-based, human; conditions: at 10 μM, Panc-1 pancreatic cancer cell line; starred symbols = activation
Summary of the method: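 Panc-1 cells (KRas G12D) were treated with compound for 6 h at 37 °C, at 10 μM or as serial dilutions for IC50, with 0.3% DMSO. Method 1 used overnight serum-starved cells (0.5% FBS) stimulated with 1.5 ng/ml EGF for 15 min; Method 2 used unstimulated cells in 10% FBS. Phospho-p38 (Thr180/Tyr182) was detected by western blot.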

[2] = test system: KRas Q61H mutant; test: Ras GTP Binding Domain Inhibition Assay (Ras Superfamily Assay); conditions: 20 μM compound; for KRas Q61H mutant + SOS: % inh.: with SOS; for KRas Q61H mutant: % inh.: without SOS
Summary of the method: (§1)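 Binding of 100 nM fluorescent GTP (Cy3 or Cy5, 45 min, room temperature) was read after washes from plate-captured His-tagged protein. Beforehand, compounds at 20 μM or in dilution series for IC50 sat 3 h on the protein in Tris buffer pH 7.4 or 7.0 with 1% DMSO, Sos GEF optionally added for the last hour.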

[3] = molecular target: T1, Rho-A (Homo sapiens, UniProt P61586); test: as above; conditions: read-out: Rho-A: % inh..
T1 construct: made in house
Summary of the method: as §1

[4] = test system: KRas G12C mutant; test: as above; conditions: 20 μM compound; for KRas G12C mutant + SOS: % inh.: with SOS; for KRas G12C mutant: % inh.: without SOS
Summary of the method: as §1

T1 sequence (P61586 whole entry): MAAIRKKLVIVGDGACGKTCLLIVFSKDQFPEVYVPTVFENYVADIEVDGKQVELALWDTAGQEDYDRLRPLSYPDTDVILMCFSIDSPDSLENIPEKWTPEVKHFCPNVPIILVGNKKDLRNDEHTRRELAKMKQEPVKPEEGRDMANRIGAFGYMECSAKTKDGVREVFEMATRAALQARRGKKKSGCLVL

Row | KRas Q61H mutant + SOS: % inh. [2] | KRas Q61H mutant: % inh. [2] | inhibition at 20 µM [3] | KRas G12C mutant + SOS: % inh. [4] | KRas G12C mutant: % inh. [4] | Compound | % inh of MAPK p38 in Panc-1 [1]
1 | 0 (0 = 0% inhibition) | 0 (0 = 0% inhibition) | 0% | 0 (0 = 0% inhibition) | 0 (0 = 0% inhibition) | CO[C@H]1CC[C@@H](Nc2nc(-c3nccn3C)nn3cc(-c4ccn(C(C)C)n4)c(C)c23)C1 (racemic) [Compound 1, rac 6-(1-Isopropyl-1H-pyrazol-3-yl)-N-((1R,3S)-3-methoxycyclopentyl)-5-methyl-2-(1-methyl-1H-imidazol-2-yl)pyrrolo[2,1-f][1,2,4]triazin-4-amine] | H* (H* ≥ 100% activation)
2 | 0 (0 = 0% inhibition) | 0 (0 = 0% inhibition) | 0% | 0 (0 = 0% inhibition) | 0 (0 = 0% inhibition) | COCC1CCN(c2nc(-c3nccn3C)nn3cc(-c4ccn(C(C)C)n4)c(C)c23)C1 (racemic) [Compound 2, rac 6-(1-Isopropyl-1H-pyrazol-3-yl)-4-(3-(methoxymethyl)pyrrolidin-1-yl)-5-methyl-2-(1-methyl-1H-imidazol-2-yl)pyrrolo[2,1-f][1,2,4]triazine] | H* (H* ≥ 100% activation)
3 | 0 (0 = 0% inhibition) | 0 (0 = 0% inhibition) | 0% | 0 (0 = 0% inhibition) | 0 (0 = 0% inhibition) | COC[C@@H]1CC[C@@H]1CNc1nc(-c2nccn2C)nn2cc(-c3ccn(C(C)C)n3)c(C)c12 (racemic) [Compound 3, rac 6-(1-Isopropyl-1H-pyrazol-3-yl)-N-(((1S,2R)-2-(methoxymethyl)cyclobutyl)methyl)-5-methyl-2-(1-methyl-1H-imidazol-2-yl)pyrrolo[2,1-f][1,2,4]triazin-4-amine] | H* (H* ≥ 100% activation)
4 | 0 (0 = 0% inhibition) | 0 (0 = 0% inhibition) | 1 to 25% | 0 (0 = 0% inhibition) | 0 (0 = 0% inhibition) | COC1CCCN(c2nc(-c3nccn3C)nn3cc(-c4ccn(C(C)C)n4)c(C)c23)C1 (racemic) [Compound 4, rac 6-(1-Isopropyl-1H-pyrazol-3-yl)-5-methyl-2-(1-methyl-1H-imidazol-2-yl)-4-(3-(oxo-γ6-methyl)piperidin-1-yl)pyrrolo[2,1-f][1,2,4]triazine] | G* (G* = 75-99% activation)
5 | A (A = 1-25% inhibition) | 0 (0 = 0% inhibition) | 1 to 25% | 0 (0 = 0% inhibition) | 0 (0 = 0% inhibition) | CO[C@H]1CC[C@@H](Nc2nc(-c3nccn3C)nn3cc(-c4ccn(C(C)C)n4)c(-c4ccccc4)c23)C1 (racemic) [Compound 18, rac 6-(1-Isopropyl-1H-pyrazol-3-yl)-N-((1R,3S)-3-methoxycyclopentyl)-2-(1-methyl-1H-imidazol-2-yl)-5-phenylpyrrolo[2,1-f][1,2,4]triazin-4-amine hydrochloride] | H* (H* ≥ 100% activation)
6 | B (B = 26-49% inhibition) | 0 (0 = 0% inhibition) | 1 to 25% | A (A = 1-25% inhibition) | 0 (0 = 0% inhibition) | COCC1CCN(c2nc(-c3nccn3C)nn3cc(-c4ccn(C(C)C)n4)c(-c4ccccc4)c23)C1.Cl (racemic) [Compound 19, rac 6-(1-Isopropyl-1H-pyrazol-3-yl)-4-(3-(methoxymethyl)pyrrolidin-1-yl)-2-(1-methyl-1H-imidazol-2-yl)-5-phenylpyrrolo[2,1-f][1,2,4]triazine hydrochloride salt] | H* (H* ≥ 100% activation)
7 | 0 (0 = 0% inhibition) | 0 (0 = 0% inhibition) | 1 to 25% | 0 (0 = 0% inhibition) | A (A = 1-25% inhibition) | COC[C@@H]1CC[C@@H]1CNc1nc(-c2nccn2C)nn2cc(-c3ccn(C(C)C)n3)c(-c3ccccc3)c12 (racemic) [Compound 20, rac 6-(1-Isopropyl-1H-pyrazol-3-yl)-N-(((1S,2R)-2-(methoxymethyl)cyclobutyl)methyl)-2-(1-methyl-1H-imidazol-2-yl)-5-phenylpyrrolo[2,1-f][1,2,4]triazin-4-amine] | H* (H* ≥ 100% activation)
8 | A (A = 1-25% inhibition) | 0 (0 = 0% inhibition) | 1 to 25% | 0 (0 = 0% inhibition) | 0 (0 = 0% inhibition) | COC1CCCN(c2nc(-c3nccn3C)nn3cc(-c4ccn(C(C)C)n4)c(-c4ccccc4)c23)C1 (racemic) [Compound 21, rac 6-(1-Isopropyl-1H-pyrazol-3-yl)-4-(3-methoxypiperidin-1-yl)-2-(1-methyl-1H-imidazol-2-yl)-5-phenylpyrrolo[2,1-f][1,2,4]triazine] | H* (H* ≥ 100% activation)
9 | 0 (0 = 0% inhibition) | 0 (0 = 0% inhibition) | 1 to 25% | A (A = 1-25% inhibition) | 0 (0 = 0% inhibition) | COc1cccc(-c2cn3nc(-c4nccn4C)nc(N[C@@H]4CC[C@@H](OC)C4)c3c2-c2ccccc2)c1Cl.Cl (racemic) [Compound 34, rac 6-(2-Chloro-3-methoxyphenyl)-N-((1R,3R)-3-methoxycyclopentyl)-2-(1-methyl-1H-imidazol-2-yl)-5-phenylpyrrolo[2,1-f][1,2,4]triazin-4-amine hydrochloride] | H (H = 100% inhibition)
10 | – | – | 26 to 49% | – | – | COCCNc1nc(-c2nccn2C)nn2cc(-c3ccn(C(C)C)n3)c(C)c12 [Compound 5, 6-(1-Isopropyl-1H-pyrazol-3-yl)-N-(2-methoxyethyl)-5-methyl-2-(1-methyl-1H-imidazol-2-yl)pyrrolo[2,1-f][1,2,4]triazin-4-amine] | –
11 | A (A = 1-25% inhibition) | B (B = 26-49% inhibition) | 0% | A (A = 1-25% inhibition) | 0 (0 = 0% inhibition) | COc1cccc(Nc2nc(-c3nccn3C)nn3cc(-c4ccn(C(C)C)n4)c(C)c23)n1 [Compound 7, 6-(1-Isopropyl-1H-pyrazol-3-yl)-N-(6-methoxypyridin-2-yl)-5-methyl-2-(1-methyl-1H-imidazol-2-yl)pyrrolo[2,1-f][1,2,4]triazin-4-amine] | H* (H* ≥ 100% activation)
12 | C (C = 50-75% inhibition) | C (C = 50-75% inhibition) | 76 to 100% | C (C = 50-75% inhibition) | C (C = 50-75% inhibition) | CC(C)n1ccc(-c2cn3nc(-c4nccn4C)nc(O)c3c2-c2ccccc2)n1 [Compound 17, 6-(1-Isopropyl-1H-pyrazol-3-yl)-2-(1-methyl-1H-imidazol-2-yl)-5-phenylpyrrolo[2,1-f][1,2,4]triazin-4-ol] | 0 (0 = 0% inhibition)
13 | 0 (0 = 0% inhibition) | 0 (0 = 0% inhibition) | 0% | C (C = 50-75% inhibition) | C (C = 50-75% inhibition) | Cc1ccn2nc(-c3nccn3C)nc(N)c12.O=C(O)C(F)(F)F [Compound 37, 5-Methyl-2-(1-methyl-1H-imidazol-2-yl)pyrrolo[2,1-f][1,2,4]triazin-4-amine trifluoroacetic acid salt] | –
14 | 0 (0 = 0% inhibition) | A (A = 1-25% inhibition) | 0% | A (A = 1-25% inhibition) | B (B = 26-49% inhibition) | Cn1ccnc1-c1nc(O)c2c(-c3ccccc3)ccn2n1 [Compound 39, 2-(1-Methyl-1H-imidazol-2-yl)-5-phenylpyrrolo[2,1-f][1,2,4]triazin-4-ol] | –
15 | B (B = 26-49% inhibition) | A (A = 1-25% inhibition) | 50 to 75% | A (A = 1-25% inhibition) | A (A = 1-25% inhibition) | Cc1c(-c2ccn(C(C)C)n2)cn2nc(-c3nccn3C)nc(Nc3noc(C4CC4)n3)c12 [Compound 75, 5-Cyclopropyl-N-(6-(1-isopropyl-1H-pyrazol-3-yl)-5-methyl-2-(1-methyl-1H-imidazol-2-yl)pyrrolo[2,1-f][1,2,4]triazin-4-yl)-1,2,4-oxadiazol-3-amine] | –
16 | A (A = 1-25% inhibition) | 0 (0 = 0% inhibition) | 1 to 25% | 0 (0 = 0% inhibition) | 0 (0 = 0% inhibition) | COCCO[C@H]1C[C@H](Nc2nc(-c3nccn3C)nn3cc(-c4ccn(C(C)C)n4)c(C)c23)C1 [Compound 92, 6-(1-Isopropyl-1H-pyrazol-3-yl)-N-((1r,3r)-3-(2-methoxyethoxy)cyclobutyl)-5-methyl-2-(1-methyl-1H-imidazol-2-yl)pyrrolo[2,1-f][1,2,4]triazin-4-amine] | –

Reference: US12459951B2, “Compounds that interact with RAS superfamily proteins for treatment of cancers, inflammatory diseases, rasopathies, and fibrotic disease” (SHY Therapeutics, LLC, priority 2022, dated 2025)
